According to US6689767B2, “Triterpenes having antibacterial activity” (Regents of the University of Minnesota, priority 2000, dated 2004):

Assays:
Assay type in all cases: cell-based
Staphylococcus aureus = experiment: Kirby-Bauer disk diffusion growth inhibition, Staphylococcus aureus; conditions: for zone of inhibition at 0.125 µg/mL: read-out: Zone of inhibition Staphylococcus aureus
Protocol: (§1) The compounds disclosed herein were tested for growth inhibition against four strains of bacteria: Escherichia coli, Staphylococcus aureus, methicillin-resistant Staphylococcus aureus, and Bacillus subtilis. […] They represent […]. E. coli is a gram-negative, non-spore forming, rod-shaped, opportunistic pathogen that resides in the human digestive tract. S. aureus is a gram positive coccus, is usually found morphologically as a […], and is an opportunistic human pathogen, often residing on or in the skin. B. subtilis is a gram positive spore-forming rod. Its native environment is the soil. The chemicals were tested for growth-inhibition of the bacteria by the Kirby-Bauer method. See, e.g., Microbiology, third edition; Lansing M. Prescott, John P. Harley, and Donald A. Klein; Wm. C. Brown Publishers.
(§2) Mueller-Hinton agar (Difco Lab, Michigan) was prepared according to the manufacturer's directions, and 20 ml was dispensed in each sterile petri dish. Sterile nutrient broth (Difco Lab, Michigan) was also prepared according to the manufacturer's directions.
(§3) Bacteria were grown in liquid nutrient broth for 18 hours at 37° C. until they were turbid.
(§4) An aliquot of 0.5 ml of cultured bacteria was aseptically transferred to the surface of a Mueller-Hinton agar plat, and spread using a cotton-tipped swab. Plates were then allowed to dry for 5 minutes. Then a 10 mm diameter filter paper disk impregnated with the test chemical was placed with sterile forceps on the plate. The disks were impregnated with 100 μl of a solution of the test compound in DMSO or in water, at the indicated concentrations in Table 1.
(§5) The zones of inhibition were measured after 18 hours growth at 37° C. Tests were done in triplicate.
(§6) Additional compounds were tested for activity against E. coli, laboratory strain S. aureus (not methicillin resistant), and B. subtilis. The compounds were tested by the disk diffusion method, as in Example 1, with application of a 10 mg/mil solution of the test compound in DMSO.
Derivatives of lupeol were tested for inhibition of bacterial growth using the Kirby-Bauer disk diffusion method and by growth in liquid culture. For the disk diffusion method, compounds were dissolved in DMSO and 100 μl was added to the 10 mm filter paper disk. The amount of compound applied to the disk varied. The amount applied for each compound was as follows: lupeol (50 μg), lupeol-3-maleate (15 μg), lupeol-3-thiodiglycolate (15 μg), lupeol-3-dimethyl succinate (60 μg), lupeol-3-phosphate (30 μg), lupenone (50 μg), lupenon-3-oxime (50 μg), lupeol-3-amine (50 μg), lupenon-1,2-ene-2-ol (50 μg). In liquid culture, the compounds were dissolved in DMSO at 1 mg/ml and then 100 μl was added to 7 ml of sterile broth, along with a 1/200 dilution of freshly grown bacterial liquid culture.

Escherichia coli = experiment: Kirby-Bauer disk diffusion growth inhibition, Escherichia coli; conditions: for zone of inhibition at 0.125 µg/mL: read-out: Zone of inhibition Escherichia coli
Protocol: as §1, §2, §3, §4, §5, §6

Bacillus subtilis = experiment: Kirby-Bauer disk diffusion growth inhibition, Bacillus subtilis; conditions: for zone of inhibition at 0.125 µg/mL: read-out: Zone of inhibition Bacillus subtilis
Protocol: as §1, §2, §3, §4, §5, §6

[1] = 125 ng/ml in water, 100 μl on 10 mm disk, 18 hours 37° C.
[2] = Staphylococcus aureus, 125 ng/ml in water, 100 μl on 10 mm disk, 18 hours 37° C.
[3] = Escherichia coli, 125 ng/ml in water, 100 μl on 10 mm disk, 18 hours 37° C.
[4] = Bacillus subtilis, 125 ng/ml in water, 100 μl on 10 mm disk, 18 hours 37° C.

| Compound | Zone of inhibition Staphylococcus aureus (Staphylococcus aureus; [1]) | Zone of inhibition Escherichia coli (Escherichia coli; [1]) | Zone of inhibition Bacillus subtilis (Bacillus subtilis; [1]) | further results |
| --- | --- | --- | --- | --- |
| C=C(C)[C@@H]1CC[C@]2(COC(=O)[C@@H]3CCCN3)CC[C@]3(C)[C@H](CC[C@@H]4[C@@]5(C)CC[C@H](OC(=O)[C@@H]6CCCN6)C(C)(C)[C@@H]5CC[C@]43C)[C@@H]12 [Betulin Di-(L-proline) ester] | 0 mm | 0 mm | 0 mm |  |
| C=C(C)C1CCC2(COC(=O)C(N)Cc3ccccc3)CCC3(C)C(CCC4C5(C)CCC(OC(=O)C(N)Cc6ccccc6)C(C)(C)C5CCC43C)C12 (stereo not drawn) [Betulin-3,28-diphenylalanine ester] | 0 mm | 0 mm | 0 mm |  |
| C=C(C)[C@@H]1CC[C@]2(CO)CC[C@]3(C)[C@H](CC[C@@H]4[C@@]5(C)CC[C@H](O)C(C)(C)[C@@H]5CC[C@]43C)[C@@H]12 [Betulin] |  |  |  | zone of inhibition at 1000 µg/mL (Staphylococcus aureus; Staphylococcus aureus, 1 mg/ml in DMSO, 100 μl on 10 mm disk, 18 hours 37° C.): 0 mm; zone of inhibition at 1000 µg/mL (Escherichia coli; Escherichia coli, 1 mg/ml in DMSO, 100 μl on 10 mm disk, 18 hours 37° C.): 0 mm; zone of inhibition at 1000 µg/mL (Bacillus subtilis; Bacillus subtilis, 1 mg/ml in DMSO, 100 μl on 10 mm disk, 18 hours 37° C.): 0 mm |
| C=C(C)C1CCC2(C)CCC3(C)C(CCC4C5(C)CCC(OC(=O)c6ccccc6C(=O)O)C(C)(C)C5CCC43C)C12 (stereo not drawn) [Lupeol-3-phthalate] |  |  |  | zone of inhibition at 0.125 µg/mL (Staphylococcus aureus; [2]): 0 mm; zone of inhibition at 0.125 µg/mL (Escherichia coli; [3]): 0 mm; zone of inhibition at 0.125 µg/mL (Bacillus subtilis; [4]): 0 mm |
| C=C(C)C1CCC2(C)CCC3(C)C(CCC4C5(C)CCC(OC(=O)CCC(=O)O)C(C)(C)C5CCC43C)C12 (stereo not drawn) [Lupeol-3-succinate] |  |  |  | zone of inhibition at 0.125 µg/mL (Staphylococcus aureus; [2]): 0 mm; zone of inhibition at 0.125 µg/mL (Escherichia coli; [3]): 0 mm; zone of inhibition at 0.125 µg/mL (Bacillus subtilis; [4]): 0 mm |
| CC1(C)S[C@@H]2[C@H](NC(=O)Cc3ccccc3)C(=O)N2[C@H]1C(=O)O [Pencillin G, reference compound] |  |  |  | Zone of inhibition Staphylococcus aureus (Staphylococcus aureus; control antibiotic, 10 units): 40.0 mm; Zone of inhibition Escherichia coli (Escherichia coli; control antibiotic, 10 units): 0 mm; Zone of inhibition Bacillus subtilis (Bacillus subtilis; control antibiotic, 10 units): 25.0 mm |
| CN(C)[C@@H]1C(O)=C(C(N)=O)C(=O)[C@@]2(O)C(O)=C3C(=O)c4c(O)cccc4[C@@](C)(O)[C@H]3C[C@@H]12 [Tetracycline, reference compound] |  |  |  | zone of inhibition at 30 µg/disc (Staphylococcus aureus; Staphylococcus aureus, control antibiotic, 30 mcg): 26 mm; zone of inhibition at 30 µg/disc (Escherichia coli; Escherichia coli, control antibiotic, 30 mcg): 19 mm; zone of inhibition at 30 µg/disc (Bacillus subtilis; Bacillus subtilis, control antibiotic, 30 mcg): 31 mm |
| C[C@H]1[C@H](C)CC[C@]2(C(=O)O)CC[C@]3(C)C(=CC[C@@H]4[C@@]5(C)CC[C@H](O)C(C)(C)[C@@H]5CC[C@]43C)[C@H]12 [Ursolic Acid] |  |  |  | zone of inhibition at 0.125 µg/mL (Staphylococcus aureus; [2]): 0 mm; zone of inhibition at 0.125 µg/mL (Escherichia coli; [3]): 0 mm; zone of inhibition at 0.125 µg/mL (Bacillus subtilis; [4]): 0 mm |
| Allobetulin 2-alanine ester | 0 mm | 0 mm | 0 mm |  |
| Allobetulin 2-valine-ester | 0 mm | 0 mm | 0 mm |  |
| Allobetulin ethanol amine | 0 mm | 0 mm | 0 mm |  |
| Allobetulin glycine | 0 mm | 0 mm | 0 mm |  |
| Allobetulin-3-phthalate [Allobetulin 3-phthalate] | 0 mm | 0 mm | 0 mm |  |
| Allobetulin-3-poly (ethylene glycol) bis (carboxymethyl) ether ester | 0 mm | 0 mm | 0 mm |  |
